According to paper PMC4116523, “Novel peptides suppress VEGFR-3 activity and antagonize VEGFR-3-mediated oncogenic effects” (Oncotarget, 2014):
Bridges are numbered along the chain shown (N, C = ends). Where no end group is shown, it is not given here.

Tests used:
[1] = test system: human soluble protein kinase VEGFR-3 (sVEGFR-3); experiment: VEGFR-3 kinase assay ([32P]ATP, poly(Glu:Tyr); Eurofins Panlabs); type: biochemical; settings: peptides screened at 10 μM, 0.1 μg/ml enzyme, HEPES pH 7.4, 15 min preincubation 37°C, 10 μM ATP, [γ32P]ATP, 30 min, Figure 1B
Method: Kinase assays were performed as previously described. Briefly, human soluble protein kinase VEGFR-3 (sVEGFR-3) that was expressed in insect cells was used for the kinase assays. The candidate peptides were preincubated with 0.1 μg/ml of enzyme in modified HEPES buffer pH 7.4 for 15 minutes at 37°C. The reaction was initiated by addition of 0.2 mg/ml poly(Glu:Tyr), 10 μM ATP and 0.25 μCi [γ^32P]ATP for another 30 minute incubation period and terminated by further addition of 3% H3PO4. Aliquots were removed and counted to determine the amount of [^32P] Poly(Glu:Tyr) that formed. Compounds were screened at 10 μM. All peptides were analyzed by Eurofins Panlabs Taiwan Ltd.

sVEGFR-3 = experiment: Competition assay of synthesized peptides with rhVEGF-C for binding to plate-bound sVEGFR-3 (ELISA); set-up: species or system human; settings: sVEGFR-3 250 ng/mL coated; peptide 6 h RT, then rhVEGF-C 300 ng/mL 6 h; ELISA A450/650; mean of three independent experiments; Figure 1A
Method: Soluble VEGFR-3 (sVEGFR-3) (250 ng/mL) (Angio-Proteomie, Boston, MA) was immobilized on 96-well plates and blocked with phosphate buffer containing 1% BSA for 1 hour at room temperature. In competition experiments, peptides were incubated with the VEGFR-3-coated plates for 6 hours at room temperature. After incubation, human recombinant VEGF-C protein (rhVEGF-C, 300 ng/mL, 100 μL) was added directly to the wells without removal of the peptides and then incubated at room temperature for 6 hours. The plates were thoroughly washed with 0.1% BSA/PBS buffer (pH 8.5), and anti–VEGF-C Ab was added at 4°C for 24 hours. Biotin-conjugated goat anti-rabbit IgG antibody was added for 1 hour. HRP-conjugated streptavidin was then added for 30 minutes. The free streptavidin conjugate was washed away and freshly prepared substrate solution (TMB) was then added to each well. The reaction was allowed to stand for 15 minutes, and the color development was stopped by the addition of H3PO4 (1.0 mol/L). The absorbance at 450 nm was read with a reference wavelength of 650 nm (A450/650).

VEGFR-3 [2] = experiment: KIRA-ELISA of tyr-phosphorylated VEGFR-3 in VEGF-C-treated H928 lung cancer cells; type: cell-based, human; settings: serum-starved, peptide 30 min then rhVEGF-C 15 min, Figure 1C
Method: H928 lung cancer cells (2×10^5) were cultured in 24-well plates and serum-starved for 24 hours. Cells were pretreated with candidate peptide for 30 minutes and then treated with rhVEGF-C for 15 minutes. Cells were solubilized in RIPA lysis buffer for 60 minutes. Another 85 μl of cell lysate was transferred to an ELISA well that was coated with VEGFR-3 and incubated for 2 hours. After the plates were washed, biotinylated-4G10 antibody (500 ng/ml, 100 μl) was added and incubated for 2 hours. After the plates were washed, HRP-conjugated streptavidin was then added for 30 minutes. The free avidin conjugate was washed away and freshly prepared substrate solution (TMB) was then added to each well. The reactions were allowed to proceed for 10 minutes, and the color development was stopped by the addition of H3PO4 (1.0 mol/L). The absorbance at 450 nm was read with a reference wavelength of 650 nm (A450/650).

VEGFR-3 [3] = experiment: Western blot of VEGF-C-induced VEGFR-3 Tyr1063/1068 phosphorylation; type: cell-based, human; settings: A549 and 293T/VEGFR-3 cells, peptides 24 hours, rhVEGF-C, Figure 2A, 2B
Method: (§1) Cells were incubated in serum-free DMEM/F12 for 24 hours before treatment with or without rhVEGF-C (100 ng/mL). Cells were lysed in RIPA buffer [Tris-HCl (50 mM; pH 7.5), NaCl (120 mM), NP-40 (0.5%), Na3VO4 (200 mM), EDTA (100 mM), sodium deoxycholate (0.5%), SDS (1%)] for 10 minutes on ice. An equal quantity of protein from the cell lysates was resuspended in gel sample buffer, resolved by 10% SDS-PAGE, and transferred to polyvinylidene difluoride membrane membranes (Millipore Corp., Milford, MA). After blocking, membranes were incubated with specific primary antibodies and corresponding secondary antibodies. Immunoreaction signals were visualized by an enhanced chemiluminescence detection system (PerkinElmer Health Sciences, Waltham MA).

Src = experiment: Western blot of Src phosphorylation (VEGFR-3-mediated signaling pathway); type: cell-based, human; settings: A549 and 293T/VEGFR-3 cells, rhVEGF-C, Figure 2A, 2B
Method: as §1

A549 lung cancer cells = experiment: Boyden chamber migration/invasion assay, A549; type: cell-based, human; settings: peptide 100 μM, 24 hours, uncoated / matrigel-coated transwells, Figure 3
Method: (§2) Boyden chamber cell migration assays were performed using uncoated transwells and matrigel-coated transwells with membranes (8 μm pore-size) (Becton Dickinson, Mountain View, CA). The chambers were inserted into 24-well culture plates that contained DMEM/F12 with 10% fetal bovine serum. The cells were pretreated with peptide (100 μM) in serum-free DMEM/F12 medium and were loaded into the transwells. After 24 hours, non-migrated cells were removed with a cotton swab and the cells were fixed with methanol for 15 min and stained with crystal violet. The migrated cells were quantified by blind counting of the migrated cells on the lower surface of the membrane from at least 10 fields per chamber using a 20X objective. All migration and invasion assays were normalized to the proliferation rate.

[4] = test system: MDA-MB-231 breast cancer cells; experiment: Boyden chamber migration/invasion assay, MDA-MB-231; type: cell-based, human; settings: peptide 100 μM, 24 hours, uncoated / matrigel-coated transwells, Figure 3
Method: as §2

A549 cells [5] = experiment: VEGF-C-induced drug resistance (Taxol, cisplatin), DNA flow cytometric and trypan blue exclusion assays; type: cell-based, human; settings: A549, rhVEGF-C, 20 nM Taxol or 10μM cisplatin 48 hours; flow cytometry (PI) and trypan blue exclusion; Figure 3E-3H
Method: Briefly, cells were treated with 20 nM Taxol or 10μM cisplatin and incubated for 48 hours. Samples were prepared and analyzed as previously described.
Briefly, cells were harvested using trypsin and stained with 0.4% trypan blue dye (Sigma-Aldrich). Trypan blue-positive and -negative cells were counted using a hemacytometer (Hausser Scientific, Horsham, PA) under a phase-contrast microscope (Fisher Scientific, Pittsburgh, PA). The results of each assay were expressed in terms of the percentage of dead cells relative to the total number of cells. Individual experiments were performed in triplicate.

A549 cells [6] = experiment: VEGF-C-induced drug resistance (Taxol, cisplatin), MTT assay; type: cell-based, human; settings: A549, peptides 200 μM, rhVEGF-C 100 ng/mL, Taxol or cisplatin; Figure S3
Method: A549 lung cancer cells (3×10^3) were cultured in 96-well plates and serum-starved for 24 hours. Cells were treated with the candidate peptides (200 μM) for 4 hours and were treated with rhVEGF-C (100 ng/mL) for 6 hours in serum-free medium. After 48 hours, MTT (5 mg/ml) was added for 3 hours and the precipitates were dissolved in DMSO. The absorbance at 570 nm was read with a reference wavelength of 630 nm (A570/630).

[7] = test system: lymphatic endothelia cells (LECs); experiment: VEGF-C-induced VEGFR-3 phosphorylation, migration and proliferation in LECs (western blot, Boyden chamber, MTT); type: cell-based, human; settings: MTT (96 hrs), Figure 4A
[8] = test system: various cancer cell lines (MDA-MB-231, BT474, HS578T, HBL100, MDA-MB-361, MCF-7, CL1-5, H460, H322); experiment: VEGF-C-induced VEGFR-3 phosphorylation, migration and invasion in various cancer cell lines; type: cell-based, human; settings: various breast and lung cancer cell lines; Figure 4B-4E, Figure S4
Method: as §1
as §2, with “After 24 hours, non-migrated cells were removed with a cotton swab and the cells were fixed with methanol for 15 min and stained with crystal violet.” left out, “All migration and invasion assays were normalized to the proliferation rate.” left out

A549 cells [9] = experiment: Sphere-forming assay (tumor initiating cells), A549; type: cell-based, human; settings: peptide 200 μM, rhVEGF-C 200 ng/mL, 10 days non-adherent, Figure S5A
Method: (§3) A549 and MCF-7 cells were serum-starved for 24 hours. The cells were pretreated with candidate peptides (200 μM) in the presence or absence of rhVEGF-C for 24 hours. The cells were trypsinized and mechanically dissociated to generate single cells that were then seeded at a density of 1×10^3 cells/ml in serum-free DMEM/F12 medium (Invitrogen, Carlsbad, CA) that was freshly supplemented with epidermal growth factor (20 ng/ml), basic fibroblast growth factor (20 ng/ml) (R&D Systems, Minneapolis, MN), 1X B27 supplement, 1X N2 supplement (Invitrogen, Carlsbad, CA) in the presence or absence of rhVEGF-C (200 ng/mL) and candidate peptides (200 μM) in non-adherent plates for 10 days. Quantification of sphere formation was determined by measuring the percentage of 5000 spheres.

MCF-7 cells = experiment: Sphere-forming assay (tumor initiating cells), MCF-7; type: cell-based, human; settings: peptide 200 μM, rhVEGF-C 200 ng/mL, 10 days non-adherent, Figure S5B
Method: as §3

SOX2 = SOX2 expression by reverse transcription PCR in A549 spheres; type: cell-based, human; settings: A549 spheres grown 10 days; Figure S6
Method: Total RNA was isolated after A549 spheres had grown for 10 days by using Trizol (Invitrogen, Carlsbad, CA), and cDNA were synthesized with Oligo dT (Thermo Scientific, Brookfield, WI). The specific primers for SOX2 were 5'-TACAACATGATGGAGACG-3' and 5'-[…]-3'. The reaction was cycled at 95°C for 40 seconds, then 56°C for 40 seconds, and then 72°C for 30 seconds for 30 cycles followed by a final extension of 72°C for 5 minutes.

[10] = test system: MDA-MB-231/VEGF-C lung metastasis; experiment: Experimental metastasis assay, MDA-MB-231/VEGF-C cells by tail vein, bioluminescent imaging of lung; type: in vivo; settings: SCID mice, n=8, peptide 8 μg/g body weight i.v., one day before cells then twice weekly for 8 weeks; bioluminescence; control peptide P4; Figure 5
Method: All animal work was performed in accordance with protocols that were approved by the Institutional Animal Care and Use Committee of the National Health Research Institutes. All of the animal experiments were performed on 6- to 8-week-old CB-17 severe combined immunodeficient (SCID) female mice (supplied by LASCO, Taiwan) with eight animals per group. The control (P4), P5 and P6 peptides were pretreated with 8 μg/g body weight dissolved in 50 μl PBS and i.v. injected into mice one day before cancer cell injection. For experimental metastasis assays, 2.5 × 10^5 viable cells were resuspended in 0.1 mL of PBS and introduced into the circulation via tail vein injection. For the treatment, peptides were administered (8 μg/g body weight) twice weekly for 8 weeks. The luciferase-based, non-invasive bioluminescent imaging and analysis were performed with the Xenogen IVIS-200 system (Xenogen, Alameda, CA, USA).

CLTSSLRSC (disulfide 1-9 (inferred)) [P8]
inhibitory effects on VEGFR-3 kinase activity [1]: 49%

CNDSHMKLC (disulfide 1-9 (inferred)) [P4, used as control peptide in later assays]
levels of sVEGFR-3-bound VEGF-C (competition with VEGF-C binding) (sVEGFR-3): reduced the levels of bound VEGF-C in a significant and dose-dependent manner

CNYSHLFYC (disulfide 1-9 (inferred)) [P5]
levels of sVEGFR-3-bound VEGF-C (competition with VEGF-C binding) (sVEGFR-3): reduced the levels of bound VEGF-C in a significant and dose-dependent manner | inhibitory effects on VEGFR-3 kinase activity [1]: 82% | inhibitory effects on the phosphorylation of VEGFR-3 (KIRA-ELISA) (VEGFR-3 [2]): highest inhibitory effects | VEGF-C-induced VEGFR-3 Tyr1063/1068 phosphorylation (VEGFR-3 [3]): dramatic suppressive effects | phospho-Src levels (Src): decreased phospho-Src levels | migration and invasion (A549 lung cancer cells): Obvious decreases | migration and invasion [4]: Obvious decreases | VEGF-C-induced drug resistance (A549 cells [5]): inhibit | VEGF-C-induced drug resistance by MTT assay (A549 cells [6]): inhibit | VEGF-C-induced VEGFR-3 phosphorylation, cell migration and proliferation of LECs [7]: abolished | VEGF-C-induced VEGFR-3 phosphorylation, cell migration and invasion [8]: significantly inhibited | sphere formation enhanced by VEGF-C (number and size of spheres) (A549 cells [9]): decreased the number and size of the spheres | sphere formation enhanced by VEGF-C (number and size of spheres) (MCF-7 cells): decreased the number and size of the spheres | expression of SOX2 (SOX2): decreased the expression of SOX2 | VEGF-C-induced lung metastasis [10]: significantly inhibited

CYYGQSKYC (disulfide 1-9 (inferred)) [P6]
levels of sVEGFR-3-bound VEGF-C (competition with VEGF-C binding) (sVEGFR-3): reduced the levels of bound VEGF-C in a significant and dose-dependent manner | inhibitory effects on VEGFR-3 kinase activity [1]: 72% | inhibitory effects on the phosphorylation of VEGFR-3 (KIRA-ELISA) (VEGFR-3 [2]): highest inhibitory effects | VEGF-C-induced VEGFR-3 Tyr1063/1068 phosphorylation (VEGFR-3 [3]): dramatic suppressive effects | phospho-Src levels (Src): decreased phospho-Src levels | migration and invasion (A549 lung cancer cells): Obvious decreases | migration and invasion [4]: Obvious decreases | VEGF-C-induced drug resistance (A549 cells [5]): inhibit | VEGF-C-induced drug resistance by MTT assay (A549 cells [6]): inhibit | VEGF-C-induced VEGFR-3 phosphorylation, cell migration and proliferation of LECs [7]: abolished | VEGF-C-induced VEGFR-3 phosphorylation, cell migration and invasion [8]: significantly inhibited | expression of SOX2 (SOX2): decreased the expression of SOX2 | VEGF-C-induced lung metastasis [10]: significantly inhibited

CYYWQSKYC (disulfide 1-9 (inferred)) [P7]
inhibitory effects on VEGFR-3 kinase activity [1]: 69%
